# Assay results published in US8846666B2, “Oxathiazine derivatives which are substituted with benzyl or heteromethylene groups, method for producing them, their use as medicine and drug containing said derivatives and the use thereof” (Sanofi, priority 2011, dated 2014).
# Biological target: human 11β-HSD1 microsome fraction (Homo sapiens, UniProt P28845)
# Experiment: Enzymatic 11Beta-HSD1 test (SPA-based detection)
# Format: biochemical
# Conditions: [1,2-3H]-cortisone, NADPH, 37° C. for 1 hour
# Method: Enzymatic 11Beta-HSD1 Test:
# To measure the activity of the compounds, an SPA-based detection method (Solly et al. 2005) was employed. First of all, 20 μl of the human 11β-HSD1 microsome fraction (0.2 μg of protein), prepared in 50 mM HEPES, 0.1% BSA (w/v), were applied to a plate with 384 wells. The test compounds (0.09 μl) were applied to the assay plate in 100% DMSO. The reaction was started by addition of 20 μl of [1,2-^3H]-cortisone (0.1 μCi/[…]) in assay buffer comprising 25 mM HEPES, 100 mM KCl, 5 mM NaCl, 2 mM MgCl2 and 0.25 mM NADPH. The plate was agitated at 37° C. for 1 hour. At the same time, a stop solution comprising 20 mg/ml SPA-PVT beads, 1.6 mg/ml monoclonal cortisol antibody and 0.01 mM SSR110887 (inhibitor from the Biovitrium patent) in 50 mM HEPES, 1 M NaCl and 1 M KCl was stirred at room temperature. To stop the reaction, 25 μl of the stop solution were added to each well. The plate was agitated gently at room temperature for 1 further hour and then centrifuged at 500 gav for 1 min, in order that the SPA beads could settle out. The plate was then read in a Wallac-1450-Microbeta unit with a standard SPA program (counting time 1 min/well). The comparative compound was glycyrrhetinic acid.
# Protein and radioactive substrate were dispensed with a Biomek FX unit (Beckman Coulter) for handling liquids. The test compounds were added with a Cybi-Well equipped with a 90 nl pin tool (CyBio).
# Lit.: Solly S, Mundt S S, Zokian H J, Juy-Fang Ding G, Hermanowski-Vosatka A, Strulovici B and Zheng W. High-throughput screening of 11β-Hydroxysteroid dehydrogenase type 1 in scintillation proximity format. Assay Drug Dev Technol 2005; 3:377-384.
# human 11β-HSD1 microsome fraction, sequence (P28845 whole entry): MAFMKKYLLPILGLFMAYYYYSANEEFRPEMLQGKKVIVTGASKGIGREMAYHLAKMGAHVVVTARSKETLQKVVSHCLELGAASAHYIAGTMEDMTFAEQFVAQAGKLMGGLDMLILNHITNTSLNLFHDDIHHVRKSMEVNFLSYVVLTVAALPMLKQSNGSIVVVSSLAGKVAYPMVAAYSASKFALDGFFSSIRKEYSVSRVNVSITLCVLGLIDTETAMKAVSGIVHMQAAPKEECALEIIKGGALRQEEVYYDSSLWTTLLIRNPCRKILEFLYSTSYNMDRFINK
row,Compound,IC50
1,"CC1(C)OC(N[C@@H](CCO)c2ccccc2F)=NS(=O)(=O)C1Cc1ccc(C2CCN(CC3CC3)CC2)cc1 (stereo partly drawn) [Example 30, (S)-3-{5-[4-(1-Cyclopropylmethyl-piperidin-4-yl)-benzyl]-6,6-dimethyl-4,4-dioxo-5,6-dihydro-4H-4lambda6-[1,4,3]oxathiazin-2-ylamino}-3-(2-fluoro-phenyl)-propan-1-ol]",29 nM
2,CC1(C)OC(N[C@@H](CCO)c2ccccc2F)=NS(=O)(=O)C1Cc1ccc(CCCN2CCOCC2)cc1 (stereo partly shown) [Example 31],17 nM
3,"CN(C)CCCc1ccc(CC2C(C)(C)OC(N[C@@H](CCO)c3ccccc3F)=NS2(=O)=O)cc1 (stereo partly drawn) [Example 32, (S)-3-{5-[4-(3-Dimethylamino-propyl)-benzyl]-6,6-dimethyl-4,4-dioxo-5,6-dihydro-4H-4lambda6-[1,4,3]oxathiazin-2-ylamino}-3-(2-fluorophenyl)-propan-1-ol]",32 nM
4,"CNCCCc1ccc(CC2C(C)(C)OC(N[C@@H](CCO)c3ccccc3F)=NS2(=O)=O)cc1 (stereo partly drawn) [Example 33, (S)-3-{6,6-Dimethyl-5-[4-(3-methylamino-propyl)-benzyl]-4,4-dioxo-5,6-dihydro-4H-4lambda6-[1,4,3]oxathiazin-2-ylamino}-3-(2-fluorophenyl)-propan-1-ol]",30 nM
5,"CC1(C)OC(N[C@@H](CCO)c2ccccc2F)=NS(=O)(=O)[C@@H]1Cc1ccc(C2CCNCC2)cc1 [Example 34, (S)-3-[(R)-6,6-Dimethyl-4,4-dioxo-5-(4-piperidin-4-yl-benzyl)-5,6-dihydro-4H-4lambda6-[1,4,3]oxathiazin-2-ylamino]-3-(2-fluorophenyl)-propan-1-ol]",8 nM
6,"CC1(C)OC(N[C@@H](CCO)c2ccccc2F)=NS(=O)(=O)[C@H]1Cc1ccc(C2CCNCC2)cc1 [Example 35, (S)-3-[(S)-6,6-Dimethyl-4,4-dioxo-5-(4-piperidin-4-yl-benzyl)-5,6-dihydro-4H-4lambda6-[1,4,3]oxathiazin-2-ylamino]-3-(2-fluorophenyl)-propan-1-ol]",11 nM
7,CN(CCO)CCCc1ccc(CC2C(C)(C)OC(N[C@@H](CCO)c3ccccc3F)=NS2(=O)=O)cc1 (stereo partly shown) [Example 36],38 nM
8,"C[C@H](NC1=NS(=O)(=O)C(Cc2ccc(C3CCN(CCO)CC3)cc2)C(C)(C)O1)c1ccccc1F (stereo partly drawn) [Example 37, 2-[4-(4-{2-[(S)-1-(2-fluorophenyl)-ethylamino]-6,6-dimethyl-4,4-dioxo-5,6-dihydro-4H-4lambda6-[1,4,3]oxathiazin-5-ylmethyl}-phenyl)-piperidin-1-yl]-ethanol]",37 nM
9,"C[C@H](NC1=NS(=O)(=O)C(Cc2ccc(C3CCNCC3)cc2)C(C)(C)O1)c1ccccc1F (stereo partly drawn) [Example 38, [6,6-Dimethyl-4,4-dioxo-5-(4-piperidin-4-yl-benzyl)-5,6-dihydro-4H-4lambda6-[1,4,3]oxathiazin-2-yl]-[(S)-1-(2-fluorophenyl)-ethyl]-amine]",7 nM
10,"C[C@H](NC1=NS(=O)(=O)C(Cc2ccc(N3CCN(C(C)(C)C)CC3)cc2)C(C)(C)O1)c1ccccc1F (stereo partly drawn) [Example 39, {5-[4-(4-tert-Butyl-piperazin-1-yl)-benzyl]-6,6-dimethyl-4,4-dioxo-5,6-dihydro-4H-4lambda6-[1,4,3]oxathiazin-2-yl}-[(S)-1-(2-fluorophenyl)-ethyl]-amine]",17 nM
11,"COCCN1CCC(c2ccc(CC3C(C)(C)OC(N[C@@H](C)c4ccccc4F)=NS3(=O)=O)cc2)CC1 (stereo partly drawn) [Example 40, [(S)-1-(2-fluorophenyl)-ethyl]-(5-{4-[1-(2-methoxy-ethyl)-piperidin-4-yl]-benzyl}-6,6-dimethyl-4,4-dioxo-5,6-dihydro-4H-4lambda6-[1,4,3]oxathiazin-2-yl)-amine]",25 nM
12,"CC1(C)OC(N[C@@H](CCO)c2ccccc2F)=NS(=O)(=O)[C@@H]1Cc1ccc(C2CCN(C3CC3)CC2)cc1 [Example 41, (S)-3-{(R)-5-[4-(1-Cyclopropyl-piperidin-4-yl)-benzyl]-6,6-dimethyl-4,4-dioxo-5,6-dihydro-4H-4lambda6-[1,4,3]oxathiazin-2-ylamino}-3-(2-fluoro-phenyl)-propan-1-ol]",32 nM
13,"CC1(C)OC(N[C@@H](CCO)c2ccccc2F)=NS(=O)(=O)[C@H]1Cc1ccc(C2CCN(C3CC3)CC2)cc1 [Example 42, (S)-3-{(S)-5-[4-(1-Cyclopropyl-piperidin-4-yl)-benzyl]-6,6-dimethyl-4,4-dioxo-5,6-dihydro-4H-4lambda6-[1,4,3]oxathiazin-2-ylamino}-3-(2-fluoro-phenyl)-propan-1-ol]",5 nM
14,"C[C@H](NC1=NS(=O)(=O)C(Cc2ccc(C3CCN(C4CC4)CC3)cc2)C(C)(C)O1)c1ccccc1F (stereo partly drawn) [Example 43, {5-[4-(1-Cyclopropyl-piperidin-4-yl)-benzyl]-6,6-dimethyl-4,4-dioxo-5,6-dihydro-4H-4lambda6-[1,4,3]oxathiazin-2-yl}-[(S)-1-(2-fluorophenyl)-ethyl]-amine]",11 nM
15,"COC(=O)N1CCC(c2ccc(CC3C(C)(C)OC(N[C@@H](C)c4ccccc4F)=NS3(=O)=O)cn2)CC1 (stereo partly drawn) [Example 44, 5-{2-[(S)-1-(2-fluorophenyl)-ethylamino]-6,6-dimethyl-4,4-dioxo-5,6-dihydro-4H-4lambda6-[1,4,3]oxathiazin-5-ylmethyl}-3′,4′,5′,6′-tetrahydro-2′H-[2,4′]bipyridinyl-1′-carboxylic acid methyl ester]",5 nM
16,"C[C@H](NC1=NS(=O)(=O)[C@H](Cc2ccc(N3CCNCC3)cc2)C(C)(C)O1)c1ccccc1F [Example 45, [(R)-6,6-Dimethyl-4,4-dioxo-5-(4-piperazin-1-yl-benzyl)-5,6-dihydro-4H-4lambda6-[1,4,3]oxathiazin-2-yl]-[(S)-1-(2-fluorophenyl)-ethyl]-amine]",44 nM
17,C[C@H](NC1=NS(=O)(=O)[C@H](Cc2ccc(C3CCN(C)CC3)cc2)C(C)(C)O1)c1ccccc1F [Example 50],52 nM
18,C[C@H](NC1=NS(=O)(=O)[C@@H](Cc2ccc(C3CCN(C)CC3)cc2)C(C)(C)O1)c1ccccc1F [Example 51],6 nM
19,"C[C@H](NC1=NS(=O)(=O)[C@H](Cc2ccc(NCCN(C)C)cc2)C(C)(C)O1)c1ccccc1F [Example 52, N-(4-{(R)-2-[(S)-1-(2-fluorophenyl)-ethylamino]-dimethyl-4,4-dioxo-5,6-dihydro-4H-4lambda6-[1,4,3]oxathiazin-5-ylmethyl}-phenyl)-N′,N′,- dimethyl-ethane-1,2-diamine]",62 nM
20,"C[C@H](NC1=NS(=O)(=O)[C@@H](Cc2ccc(C3CCN(C4COC4)CC3)cc2)C(C)(C)O1)c1ccccc1F [Example 53, {(S)-6,6-Dimethyl-5-[4-(1-oxetan-3-yl-piperidin-4-yl)-benzyl]-4,4-dioxo-5,6-dihydro-4H-4lambda6-[1,4,3]oxathiazin-2-yl}-[(S)-1-(2-fluorophenyl)-ethyl]-amine]",9 nM
21,"C[C@H](NC1=NS(=O)(=O)[C@@H](Cc2ccc(OCC(C)(C)N)cc2)C(C)(C)O1)c1ccccc1F [Example 55, {(S)-5-[4-(2-Amino-2-methyl-propoxy)-benzyl]-6,6-dimethyl-4,4-dioxo-5,6-dihydro-4H-4lambda6-[1,4,3]oxathiazin-2-yl}-[(S)-1-(2-fluorophenyl)-ethyl]-amine]",8 nM
22,"C[C@H](NC1=NS(=O)(=O)C(Cc2ccc(C3CCN(C4COC4)CC3)nc2)C(C)(C)O1)c1ccccc1F (stereo partly drawn) [Example 56, [6,6-Dimethyl-5-(1′-oxetan-3-yl-1′,2′,3′,4′,5′,6′-hexahydro-[2,4′]bipyridinyl-5-ylmethyl)-4,4-dioxo-5,6-dihydro-4H-4lambda6-[1,4,3]oxathiazin-2-yl]-[(S)-1-(2-fluorophenyl)-ethyl]-amine]",24 nM
